Experimental findings from patent US12065408B2, “Benzaldehyde compounds with direct polymer destabilizing effects to treat sickle cell disease” (VIRGINIA COMMONWEALTH UNIVERSITY, priority 2022, dated 2024) are described below.

Data set [1] relates to RBC sickling. The data set can be described thus: Oxygen-independent sickle inhibition in SS blood suspensions under anoxia (100% nitrogen). It counts as cell-based, human. Particulars: for inhibition at 2000 µM: Homo sapiens, 2 mM compound, homozygous SCD blood, 4 biological replicates; for inhibition at 2000 µM / polymer destabilizing effects (sickle inhibition in anoxia), in words: anoxia; for polymer destabilizing effects in anoxia time-course experiments, in words: up to 2.5 h. As for the experimental part:
To establish oxygen-independent sickle inhibition, the incubation chamber was subsequently opened and exposed to room air for 15 minutes to ensure complete re-oxygenation and reversal of the sickled cells to normal round cells. Reversal was confirmed by microscopy. The incubation chamber was then closed, and the assay was repeated with incubation in 100% nitrogen gas for 1 hour (for screening), or up to 2.5 h (for time-course studies), with collection and fixation of blood aliquots at defined intervals. Aliquot samples were again subjected to microscopic morphological analysis of bright field images to identify the proportion of sickled and non-sickled cells, and sickle inhibition calculated.

Data set [2] in a line: ADME properties / oral bioavailability. Particulars: in vivo.
The nature of data set [3]: Single-dose oral pharmacokinetics in rats. It counts as in vivo, rat. Here is the method: Single-dose pharmacokinetics (PK) in male Sprague Dawley (SD) rats (n=4) were assessed for each compound, and the maximum or peak whole blood concentration and area under the curve are shown in Table 5.
Single doses of each compound were administered as oral suspensions by gavage in 0.5% carboxy methylcellulose at 100 mg/kg. Whole blood levels were collected for at least 72 hours after dose administration. Bioanalyses were performed with liquid chromatography-tandem mass spectrometry […].

In another data set the target is T1, Hb (Homo sapiens, UniProt P69905).
T1 construct: Hemoglobin modification, studies using non-sickling AA blood; from tissue; host or cells: non-sickling AA blood (red cells)
Nature of the data set: Occupancy/dose-dependent p50 shift in human non-sickle blood. It counts as cell-based. Particulars: compared to Voxelotor at equivalent drug-Hb occupancy levels. Here is the method:
Non-sickling human blood was incubated with test compounds at 0.25-2 mM concentrations at 37 °C for 1 hour in 96-well round bottom plates. At conclusion, RBCs were washed once with PBS, followed by lysis with deionized water. Approximately 100 μl aliquots of individual lysates were added to 3 mL of 0.1M potassium phosphate buffer, pH 7.0 in a cuvette and subjected to hemoximetry analysis using a Hemox™ Analyzer (TCS Scientific Corp.) as previously described. Change in p50 values (Δp50) was calculated by subtracting the p50 values of treated samples from the value of the control sample and expressing the difference as a percentage of control p50 values.

The subject of data set [4] is RBC sickling. Nature of the data set: Sickle inhibition in SS blood suspensions under hypoxia (2.5% oxygen). In kind it is cell-based. Conditions: Homo sapiens, 2 mM compound, homozygous SCD blood, 4 biological replicates. Here is the method: All compounds (Comp 1-13) and comparator molecules (VZHE-039, PP-14, INN-310, and Voxelotor) were evaluated following established procedures. Blood samples from individual donors with homozygous SCD (obtained with informed consent) were diluted using Hemox buffer solution with the addition of glucose (10 mM) and BSA (0.2%) to adjust hematocrit of the blood suspensions to 20%, which standardizes the procedure to normalize the ratio of RBCs to drug, for assay consistency and reproducibility. Briefly, blood suspensions were incubated under room air in the presence of various concentrations of test compounds (0-2 mM) at 37° ° C. for 1 hour in 96-well round bottom plates. Subsequently, the suspensions were incubated with a hypoxic gas mixture (2.5% Oxygen gas/balance Nitrogen gas) at 37° C. for up to 2 hours prior to fixation with 2% glutaraldehyde solution without exposure to air. The fixated blood aliquots were evaluated by microscopic morphological analysis (image analysis on Image J software) to identify the proportion of sickled and non-sickled RBCs, and sickle inhibition calculated based on the % change from negative control (DMSO).

Data set [5] is described as follows: 14-day repeat-dose safety (clinical observations, histopathology) in rats. In kind it is in vivo, rat. Particulars: 100 mg/kg oral once daily for 14 days. Here is the method: (§1) Repeat oral doses of each compound were administered by oral gavage for 14 days to male and female SD rats (n=3). […] Steady state exposures for the final dosing interval on Day 14 were similar to total compound exposure from single-dose PK.
(§2) Repeat doses of each compound were administered once daily as oral suspensions by gavage in 0.5% carboxy methylcellulose for 14 days at 100 mg/kg. Whole blood was collected at 7 time-points for up to 24 hours during the final dosing interval on Day 14. Clinical observations, body weights, and food consumption were recorded throughout the 14 day study. Clinical chemistry and hematologic parameters were assessed, and histopathology was performed on organs after 14 days of exposure to study drug.

Data set [6] can be described thus: 14-day repeat-dose oral pharmacokinetics in rats. It counts as in vivo, rat. Particulars: 14-day repeat oral doses. Here is the method: as §1, §2

T1 sequence (P69905 2-142 limits assumed): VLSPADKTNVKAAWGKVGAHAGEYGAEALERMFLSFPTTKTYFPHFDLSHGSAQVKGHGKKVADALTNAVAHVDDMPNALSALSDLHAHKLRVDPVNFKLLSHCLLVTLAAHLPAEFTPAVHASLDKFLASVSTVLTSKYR
T1 sequence (P68871 2-147 partner limits assumed): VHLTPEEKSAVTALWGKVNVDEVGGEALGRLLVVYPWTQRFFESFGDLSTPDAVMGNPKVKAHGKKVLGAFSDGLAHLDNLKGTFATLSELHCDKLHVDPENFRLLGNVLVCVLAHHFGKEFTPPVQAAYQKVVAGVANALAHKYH

By inhibition is commonly meant the relative decrease from the control value, in per cent. For `O=Cc1c(O)cccc1OCc1cccnc1` [Comp 1, 2-hydroxy-6-(pyridin-3-ylmethoxy)benzaldehyde], in the data set with RBC sickling [1], the inhibition at 2000 µM came out at 71.9 ± 16%; the “polymer destabilizing effects (sickle inhibition in anoxia), in words” value was “most potent polymer destabilizers discovered to date”; the “polymer destabilizing effects in anoxia time-course experiments, in words” value was “most potent and sustained polymer destabilizing effects observed to date”. For the same compound, the “absorption, distribution, metabolism and elimination (ADME) properties” value (shortened to “absorption, distribution”) in data set [2] is “acceptable”. Also, the “oral exposure levels, single dose, in words” value in data set [3] was “greatest oral exposure levels observed to date”. The “changes in p50 of Hb in human blood” value at Hb is “relatively weak changes in p50”. Besides, in the data set with RBC sickling [4], the inhibition at 2000 µM was determined as 74.8 ± 15.9%. Further, in data set [5], the “clinical and histopathologic changes after 14 days of exposure” value (from here on “clinical and histopathologic changes”) was “No clinical or histopathologic changes”.
Regarding `O=Cc1c(O)cccc1OCc1ccccn1` [Comp 2, 2-hydroxy-6-(pyridin-2-ylmethoxy)benzaldehyde], in the data set with RBC sickling [1], the inhibition at 2000 µM was 63.2 ± 17.2%; the “polymer destabilizing effects (sickle inhibition in anoxia), in words” value is recorded as “most potent polymer destabilizers discovered to date”; the “polymer destabilizing effects in anoxia time-course experiments, in words” value is “most potent and sustained polymer destabilizing effects observed to date”. The “absorption, distribution” value in data set [2] was “acceptable”. Also, the “oral exposure levels, single dose, in words” value in data set [3] is “greatest oral exposure levels observed to date”. Besides, the “changes in p50 of Hb in human blood” value on Hb is given as “relatively weak changes in p50”. Besides, the inhibition at 2000 µM in the data set with RBC sickling [4] is 72.8 ± 13%. The “clinical and histopathologic changes” value in data set [5] is “No clinical or histopathologic changes”. The “oral exposure levels, repeat dose, in words” value in data set [6] is “greatest oral exposure levels observed to date”.
Take `O=Cc1c(O)cccc1OCc1ccncc1` [Comp 3, 2-hydroxy-6-(pyridin-4-ylmethoxy)benzaldehyde]: the figures for the inhibition at 2000 µM in the data set with RBC sickling [1] and in the data set with RBC sickling [4] were 26.2 ± 8.6% and 54.1 ± 14.7%, respectively.
On the same counts, the results for `O=Cc1c(O)cccc1OCc1cncc(F)c1` [Comp 4, 2-((5-fluoropyridin-3-yl)methoxy)-6-hydroxybenzaldehyde] are 69.6 ± 13.4% and 64.3 ± 24.5%.
With `O=Cc1c(O)cccc1OCc1ncccc1F` [Comp 5, 2-((3-fluoropyridin-2-yl)methoxy)-6-hydroxybenzaldehyde], the figures for the inhibition at 2000 µM in the data set on RBC sickling [1] and in the data set on RBC sickling [4] were 66.5 ± 21.1% and 66.6 ± 9.4%, respectively. Further, the “absorption, distribution” value in data set [2] is given as “acceptable”. For the same compound, the “oral exposure levels, single dose, in words” value in data set [3] is recorded as “greatest oral exposure levels observed to date”. Also, on Hb, the “changes in p50 of Hb in human blood” value is recorded as “relatively weak changes in p50”. For the same compound, the “clinical and histopathologic changes” value in data set [5] was “No clinical or histopathologic changes”. Moreover, the “oral exposure levels, repeat dose, in words” value in data set [6] was “greatest oral exposure levels observed to date”.
In the case of `O=Cc1c(O)cccc1OCc1cccnc1F` [Comp 6, 2-((2-fluoropyridin-3-yl)methoxy)-6-hydroxybenzaldehyde], the inhibition at 2000 µM in the data set with RBC sickling [1] amounted to 32.6 ± 28.5%; in the data set on RBC sickling [4], 67.1 ± 5.8%.
For the compound `O=Cc1c(O)cccc1OCc1cccnc1Cl` [Comp 7, 2-((2-chloropyridin-3-yl)methoxy)-6-hydroxybenzaldehyde], the inhibition at 2000 µM with RBC sickling [1] turned out to be 9.4 ± 10.7%; in the data set with RBC sickling [4], 36.1 ± 19.7%.
On the same counts, the results for `O=Cc1c(O)cccc1OCc1ncccc1Cl` [Comp 8, 2-((3-chloropyridin-2-yl)methoxy)-6-hydroxybenzaldehyde] are 18.3 ± 8.4% and 69.7 ± 8%.
Regarding `O=Cc1c(F)cc(F)cc1OCc1ccccn1` [Comp 9, 2,4-difluoro-6-(pyridin-2-ylmethoxy)benzaldehyde], in the data set with RBC sickling [1], the inhibition at 2000 µM was determined as 0% and the “polymer destabilizing effects (sickle inhibition in anoxia), in words” value is given as “completely negates the polymer destabilization effects”. Further, the inhibition at 2000 µM in the data set on RBC sickling [4] is 68.1 ± 29.8%.
`O=Cc1c(O)cccc1OCc1cncnc1` [Comp 10, 2-hydroxy-6-(pyrimidin-5-ylmethoxy)benzaldehyde]: the inhibition at 2000 µM was 75.6 ± 18.5% in the data set on RBC sickling [1] and 76.6 ± 10.9% in the data set with RBC sickling [4].
For `O=Cc1c(O)cccc1OCc1ncccn1` [Comp 11, 2-hydroxy-6-(pyrimidin-2-ylmethoxy)benzaldehyde] the same measures were 45.1 ± 10.8% and 67.4 ± 18.2%.
On to `O=Cc1c(OCc2cccnc2)ccc(F)c1O` [Comp 12, 3-fluoro-2-hydroxy-6-(pyridin-3-ylmethoxy)benzaldehyde], for which the inhibition at 2000 µM in the data set with RBC sickling [1] was determined as 28.7 ± 6.9%; in the data set on RBC sickling [4] it was 68.6 ± 12%. Moreover, the “polymer destabilizing effects (sickle inhibition in anoxia), in words” value in the data set on RBC sickling [1] was “significantly reduced the potency of polymer inhibition”.
On the same counts, the results for `O=Cc1c(F)cc(F)cc1OCc1ncccc1F` [Comp 13, 2,4-difluoro-6-((3-fluoropyridin-2-yl)methoxy)benzaldehyde] are -0.5 ± 2.7%, 63.6 ± 24.3% and “completely negates the polymer destabilization effects”.
`COc1ccc(OCc2ccccn2)c(C=O)c1` [INN-310, reference compound]: in the data set with RBC sickling [1], the inhibition at 2000 µM is 17.9 ± 7% and the “polymer destabilizing effects (sickle inhibition in anoxia), in words” value is “only weak potency in anoxia”. Also, the inhibition at 2000 µM with RBC sickling [4] is 69.9 ± 20%.
For `O=Cc1c(O)cccc1OCc1ccccc1` [Reference A, 2-(benzyloxy)-6-hydroxybenzaldehyde, reference compound], the “polymer destabilizing effects (sickle inhibition in anoxia), in words” value in the data set on RBC sickling [1] was “potent polymer destabilizing effects”.
Consider `COc1ccc(OCc2cccc(CO)n2)c(C=O)c1` [TD-7, reference compound], for which the inhibition at 2000 µM came to 20.4 ± 2.9% in the data set with RBC sickling [1] and 80.6 ± 5.8% in the data set with RBC sickling [4].
For `O=Cc1c(O)cccc1OCc1cccc(CO)n1` [VZHE-039, reference compound], the inhibition at 2000 µM with RBC sickling [1] stood at 68.9 ± 17.7%; in the data set with RBC sickling [4] it was 75.3 ± 14.3%. The “clinical and histopathologic changes” value in data set [5] was “Both clinical and histopathologic changes in the liver, including hepatocyte necrosis”.
Take `CC(C)n1nccc1-c1ncccc1COc1cccc(O)c1C=O` [Voxelotor, reference compound]: in the data set on RBC sickling [1], the inhibition at 2000 µM was found to be 1.5 ± 5.5% and the “polymer destabilizing effects (sickle inhibition in anoxia), in words” value is given as “did not demonstrate any sickle inhibition in anoxic conditions”. Also, in the data set with RBC sickling [4], the inhibition at 2000 µM came out at 79.9 ± 6.2%.
